Measurements as given in US20250066349A1 (Prothena Biosciences Limited, priority 2021, published 2025).

Biological target: T1, DYRK1A (Homo sapiens (Human), UniProt Q13627)
Experiment: not given
Conditions: cited from earlier work

Row | Compound | mode of DYRK1A inhibition
1 | O=C(O[C@@H]1Cc2c(O)cc(O)cc2O[C@@H]1c1cc(O)c(O)c(O)c1)c1cc(O)c(O)c(O)c1 [EGCG, Epigallocatechin gallate] | non-ATP competitive DYRK1A inhibitor

Biological target: T1, DYRK1A
Experiment: DYRK1A Inhibition Assay
Format: biochemical
Conditions: Compounds of Formula (I); DYRK1A 1 nM, ATP 20 μM, Ser/Thr 18 peptide 2 μM, 90 minutes; read-out: DYRK1 IC50
Method: DYRK1A—Invitrogen #PV4105
• Ser/Thr 18 peptide—Invitrogen #PR8227U • Phos-Ser/Thr 18 peptide—Invitrogen #PR8229U • Assay plate—PerkinElmer #6007279 • ATP—Sigma #A7699-5G • Development reagent A—Invitrogen #PR5194B • Development buffer—Invitrogen #PR4876B Compound preparation • 1. Test compounds were diluted to 1 mM in DMSO • 2. Stock was further diluted 3-fold using Echo platform • 3. 100 nL of DMSO into Columns 1 and 24 and 100 nL of compounds dilutions to Columns 2-23 in a plate.
• 1. Add 5 μL enzyme & substrate mixture to each well in Column 2-23 and A24-H24 wells of the 384-well assay plate; • 2. Add 5 μL 0% Phosphorylation control to A1-H1 and I24-P24 wells of the assay plate; • 3. Add 5 μL 100% Phosphorylation control to I1-P1 wells of the assay plate; • 4. Spin the assay plate (1000 rpm, 1 minute @23° C.); • 5. Incubate enzyme with compounds for 15 minutes at 23° C.; • 6. Add 5 μL ATP solution to each well of the assay plate; • 7. Spin the plate (1000 rpm, 1 minute @23° C.); • 8. Incubate the assay plate for 90 minutes at 23° C.; • 9. Add 10 μL Development reagent A to each well of the assay plate; • 10. Centrifuge the plate at 1000 rpm about 15 seconds and seal a film over assay plate. Incubate the assay plate for 30 minutes at 23° C. • 11. Read assay plates on Envision (see Tables A-D).
Final Compound Concentrations
• Assay buffer: 50 mM Hepes pH7.5, 10 mM MgCl2, 1 mM EDTA, 0.01% Brij-35 • DYRK1A: 1 nM • ATP: 20 μM • Ser/Thr 18 peptide: 2 μM • Reaction time: 90 minutes

Row | IC50 [nM] | Compound
2 | 10 to 100 | Cn1cc(-c2ccc3cnc4c(c3c2)c([C@H]2CC[C@@H](N(C)C)CC2)cn4C)cn1 [Compound 49, (1s,4s)-N,N-dimethyl-4-(3-methyl-8-(1-methyl-1H-pyrazol-4-yl)-3H-pyrrolo[2,3-c]isoquinolin-1-yl)cyclohexan-1-amine]
3 | 10 to 100 | Cn1cc(-c2ccc3cnc4c(c3c2)c([C@H]2CC[C@H](N(C)C)CC2)cn4C)cn1 [Compound 50, (1r,4r)-N,N-dimethyl-4-(3-methyl-8-(1-methyl-1H-pyrazol-4-yl)-3H-pyrrolo[2,3-c]isoquinolin-1-yl)cyclohexan-1-amine]
4 | 100 to 1000 | Cc1c(-c2cccc(C(=O)O)c2)[nH]c2ncc3ccncc3c12 [Compound 52, 3-(9-methyl-7H-pyrrolo[2,3-c][2,6]naphthyridin-8-yl)benzoic acid]
5 | 100 to 1000 | Cc1c(-c2cccnc2)[nH]c2ncc3cnccc3c12 [Compound 53]
6 | ≤ 10 | Cc1c(C2CCN(CCF)CC2)[nH]c2ncc3ccc(-c4cnn(C)c4)cc3c12 [Compound 54, 2-(1-(2-fluoroethyl)piperidin-4-yl)-1-methyl-8-(1-methyl-1H-pyrazol-4-yl)-3H-pyrrolo[2,3-c]isoquinoline]
7 | ≤ 10 | Cc1c(C2CCN(CC(F)F)CC2)[nH]c2ncc3ccc(-c4cnn(C)c4)cc3c12 [Compound 55, 2-(1-(2,2-difluoroethyl)piperidin-4-yl)-1-methyl-8-(1-methyl-1H-pyrazol-4-yl)-3H-pyrrolo[2,3-c]isoquinoline]
8 | ≤ 10 | Cc1c(C2CCN(CC(C)(C)O)CC2)[nH]c2ncc3ccc(-c4cnn(C)c4)cc3c12 [Compound 56, 2-methyl-1-(4-(1-methyl-8-(1-methyl-1H-pyrazol-4-yl)-3H-pyrrolo[2,3-c]isoquinolin-2-yl)piperidin-1-yl)propan-2-ol]
9 | > 1000 | CN1CCC(c2c(C(F)(F)F)[nH]c3ncc4cc(-c5cnco5)ccc4c23)CC1 [Compound 57, 5-(1-(1-methylpiperidin-4-yl)-2-(trifluoromethyl)-3H-pyrrolo[2,3-c]isoquinolin-7-yl)oxazole]
10 | 10 to 100 | Cn1cc(-c2ccc3cnc4ncn(C5CCC5)c4c3c2)cn1 [Compound 58, 1-cyclobutyl-8-(1-methyl-1H-pyrazol-4-yl)-1H-imidazo[4,5-c]isoquinoline]
11 | ≤ 10 | C(#CC1CCOCC1)c1ncc(-c2ccc3cnc4[nH]ccc4c3c2)s1 [Compound 59]
12 | 10 to 100 | Cn1ccc2c3cc(-c4cnc(C#CC5CCOCC5)s4)ccc3cnc21 [Compound 60]
13 | ≤ 10 | CN1CCC(C#Cc2ncc(-c3ccc4cnc5[nH]ccc5c4c3)s2)CC1 [Compound 61, 2-((1-methylpiperidin-4-yl)ethynyl)-5-(3H-pyrrolo[2,3-c]isoquinolin-8-yl)thiazole]
14 | 10 to 100 | CN1CCC(C#Cc2ncc(-c3ccc4cnc5c(ccn5C)c4c3)s2)CC1 [Compound 62, 5-(3-methyl-3H-pyrrolo[2,3-c]isoquinolin-8-yl)-2-((1-methylpiperidin-4-yl)ethynyl)thiazole]
15 | ≤ 10 | Cc1c[nH]c2ncc3ccc(-c4cnc(C#CC5CCOCC5)s4)cc3c12 [Compound 63]
16 | 10 to 100 | Cc1cc2c(ncc3ccc(-c4cnc(C#CC5CCOCC5)s4)cc32)[nH]1 [Compound 64]
17 | ≤ 10 | O[C@H]1CCN(c2cncc(-c3ccc4cnc5[nH]cc(C6CCC6)c5c4c3)c2)C1 [Compound 66, (S)-1-(5-(1-cyclobutyl-3H-pyrrolo[2,3-c]isoquinolin-8-yl)pyridin-3-yl)pyrrolidin-3-ol]
18 | ≤ 10 | O[C@@H]1CCN(c2cncc(-c3ccc4cnc5[nH]cc(C6CCC6)c5c4c3)c2)C1 [Compound 67, (R)-1-(5-(1-cyclobutyl-3H-pyrrolo[2,3-c]isoquinolin-8-yl)pyridin-3-yl)pyrrolidin-3-ol]
19 | 10 to 100 | O[C@H]1CCN(c2cncc(-c3ccc4cnc5[nH]c(C6CCC6)cc5c4c3)c2)C1 [Compound 69]
20 | 10 to 100 | O[C@@H]1CCN(c2cncc(-c3ccc4cnc5[nH]c(C6CCC6)cc5c4c3)c2)C1 [Compound 70]
21 | 100 to 1000 | O=C(O)c1ccc2c(cnc3c2cnn3CC2CCOCC2)c1 [Compound 71]

Row | IC50 [nM] | Compound
22 | ≤ 10 | Cn1cc(-c2ccc3cnc4cc(C5CCOCC5)sc4c3c2)cn1 [Compound 72]
23 | 10 to 100 | c1ncc(-c2ccc3cnc4cc(C5CCOCC5)sc4c3c2)o1 [Compound 73, 5-(2-(tetrahydro-2H-pyran-4-yl)thieno[3,2-c]isoquinolin-8-yl)oxazole]
24 | 10 to 100 | Cn1cc(-c2ccc3cnc4c(c3c2)CCO4)cn1 [Compound 74, 8-(1-methyl-1H-pyrazol-4-yl)-1,2-dihydrofuro[2,3-c]isoquinoline]
25 | 10 to 100 | c1ncc(-c2ccc3cnc4c(c3c2)CCO4)s1 [Compound 75, 8-(thiazol-5-yl)-1,2-dihydrofuro[2,3-c]isoquinoline]
26 | 10 to 100 | Cn1cc(-c2ccc3cnc4occc4c3c2)cn1 [Compound 76, 8-(1-methyl-1H-pyrazol-4-yl)furo[2,3-c]isoquinoline]
27 | ≤ 10 | c1nc2c(ncc3ccc(-c4cncs4)cc32)[nH]1 [Compound 77]
28 | ≤ 10 | c1ncc(-c2ccc3cnc4cc(C5CCOCC5)sc4c3c2)s1 [Compound 78, 2-(tetrahydro-2H-pyran-4-yl)-8-(thiazol-5-yl)thieno[3,2-c]isoquinoline]
29 | 10 to 100 | Cc1ncc(-c2ccc3cnc4cc(C5CCOCC5)sc4c3c2)s1 [Compound 79, 8-(2-methylthiazol-5-yl)-2-(tetrahydro-2H-pyran-4-yl)thieno[3,2-c]isoquinoline]
30 | 100 to 1000 | Cc1nc2ncc3ccc(-c4cnn(C)c4)cc3c2s1 [Compound 80]
31 | 100 to 1000 | Cn1cc(-c2ccc3cnc4nc(C5CCOCC5)sc4c3c2)cn1 [Compound 81, 8-(1-methyl-1H-pyrazol-4-yl)-2-(tetrahydro-2H-pyran-4-yl)thiazolo[4,5-c]isoquinoline]
32 | 100 to 1000 | Cn1cc(-c2ccc3cnc4nc(C5CCOCC5)oc4c3c2)cn1 [Compound 82, 8-(1-methyl-1H-pyrazol-4-yl)-2-(tetrahydro-2H-pyran-4-yl)oxazolo[4,5-c]isoquinoline]
33 | 100 to 1000 | O=C1Cc2c(ncc3cc(-c4cnco4)ccc23)N1 [Compound 83]
34 | > 1000 | Cn1cc(-c2ccc3c4c(ncc3c2)NC(=O)C4)cn1 [Compound 84, 7-(1-methyl-1H-pyrazol-4-yl)-1,3-dihydro-2H-pyrrolo[2,3-c]isoquinolin-2-one]
35 | 10 to 100 | Cn1cc(-c2ccc3cnc4c(c3c2)CC(=O)N4)cn1 [Compound 85, 8-(1-methyl-1H-pyrazol-4-yl)-1,3-dihydro-2H-pyrrolo[2,3-c]isoquinolin-2-one]
36 | 10 to 100 | c1ncc(-c2ccc3cnc4sc(C5CCN(CC6CC6)CC5)nc4c3c2)s1 [Compound 86, 2-(1-(cyclopropylmethyl)piperidin-4-yl)-8-(thiazol-5-yl)thiazolo[5,4-c]isoquinoline]
37 | 10 to 100 | CC(C)CN1CCC(c2cc3c(ncc4ccc(-c5cncn5C)cc43)[nH]2)CC1 [Compound 87]
38 | ≤ 10 | CC(C)CN1CCC(c2cc3c(ncc4ccc(-c5cncs5)cc43)[nH]2)CC1 [Compound 88, 5-(2-(1-isobutylpiperidin-4-yl)-3H-pyrrolo[2,3-c]isoquinolin-8-yl)thiazole]
39 | 10 to 100 | CC(C)CN1CCC(c2cc3c(ncc4ccc(-c5cn[nH]c5)cc43)[nH]2)CC1 [Compound 89, 2-(1-isobutylpiperidin-4-yl)-8-(1H-pyrazol-4-yl)-3H-pyrrolo[2,3-c]isoquinoline]
40 | 100 to 1000 | Cc1[nH]c2ncc3ccncc3c2c1-c1cccc(C(=O)O)c1 [Compound 95, 3-(8-methyl-7H-pyrrolo[2,3-c][2,6]naphthyridin-9-yl)benzoic acid]
